Where a name gives a salt, the structure may show the parent alone.
What was measured:
platelet aggregation = experiment: Platelet aggregation-inhibiting activity, collagen, platelet-rich plasma (Experiment 4); assay type: cell-based, Sprague-Dawley rats; parameters: key: -: the test compound showed less than 10% inhibition of platelet aggregation; +: the test compound showed not less than 10% inhibition of platelet aggregation but said percentage inhibition was lower than that of acetylsalicylic acid (100 μg/ml); ++: the test compound showed the platelet aggregation-inhibiting activity at least as strong as that of acetylsalicylic acid (100 μg/ml); settings: final concentration 100 μg/ml, rat PRP, 37° C., Table 3
Source text: Blood was collected from the abdominal aorta of male Sprague-Dawley rats which were anesthetized with ether. Nine volumes of said blood were mixed with one volume of an aqueous 3.8% (w/v) trisodium citrate solution, and the mixture was centrifuged to give platelet-rich plasma ("PRP") as the supernatant solution. The bottom layer was further centrifuged to give platelet-poor plasma ("PPP") as the supernatant solution. Platelet counts were adjusted to 0.8-1×10^6 /mm^3 for PRP by dilution with PPP. After a mixture of 200 μl of the diluted PRP and 25 μl of a test compound solution (final concentration: 100 μg/ml) was stirred for 2 minutes at 37° C., 25 μl of a collagen solution (Biochim. Biophys. Acta, 186, page 254(1969)) were added thereto. The degree of platelet aggregation was estimated by Born's method (Nature, 194, page 927(1962)) and percentage inhibition of platelet aggregation was calculated therefrom.

calmodulin = calmodulin (Homo sapiens, UniProt P0DP23); experiment: Anti-calmodulin activity: activation of phosphodiesterase activity by calmodulin (Experiment 5); assay type: biochemical; settings: pH 7.5, 30° C.; Table 4; read-out: ID50 (concentration for 50% inhibition of the activation of phosphodiesterase activity by calmodulin)
[1] = tested on: vertebral artery blood flow; experiment: Cerebral vasodilating activity: vertebral artery blood flow in anesthetized dogs, injection into vertebral artery (Experiment 1); assay type: in vivo; settings: for Cerebral vasodilating activity (potency ratio to papaverin, class): anesthetized male dogs, injected into vertebral artery, Table 1
Experimental: (§1) For example, when the cerebral vasodilating activity is evaluated by examining vertebral artery blood flow in anesthetized dogs to which a test compound is intraarterially administered, said activity of (+)-cis-2-(4-methoxyphenyl)-3-(2-chloro-4-nitrobenzoyloxy)-5-[2-(dimethylamino)ethyl]-2,3-dihydro-1,5-benzothiazepin-4-(5H)-one fumarate is 4.5 times stronger than that of papaverine. On the other hand, the coronary vasodilating activity of (+)-cis-2-(4-methoxyphenyl)-3-(2-chloro-4-nitrobenzoyloxy)-5-[2-(dimethylamino)ethyl]-2,3-dihydro-1,5-benzothiazepin-4(5H)-one fumarate when examined by the Langendorff method using isolated hearts of guinea pigs is 10 times stronger than that of papaverine.
(§2) (Cerebral vasodilating activity)
Male dogs weighing 10 to 20 kg were anesthetized with sodium pentobarbital (30 mg/kg, intravenous injection). The blood flow in vertebral artery was measured continuously by means of an electromagnetic flowmeter under artificial respiration. A test compound dissolved in an aqueous 5% glucose solution was injected into vertebral artery. The cerebral vasodilating activity of the test compound was estimated in terms of "the potency ratio of said compound to papaverin" which was calculated from the dose-responsecurves thereof.

[2] = tested on: atrioventricular conduction; settings: known calcium-antagonistic vasodilator; cited from earlier work
[3] = tested on: coronary blood flow of the isolated heart; experiment: Coronary vasodilating activity: Langendorff's method, coronary blood flow of isolated heart (Experiment 3); parameters: species or system guinea pig; settings: for Coronary vasodilating activity (class): isolated guinea pig heart, Langendorff, Table 2
Experimental: as §1
Langendorff's method was used for testing the effect on the coronary blood flow of the isolated heart of guinea pig (about 280 g). The isolated heart was perfused with Locke-Ringer solution containing 2% of defibrinated rabbit blood, which had been saturated with a mixed gas of 95% O2 and 5% CO2 (30° C.). Perfusion pressure was kept at 40 cm H2 O. A solution of a test compound in an aqueous 5% glucose solution was injected into the perfusing solution at a volume of 0.1 ml per heart. The outflow of the perfusate was measured by means of a drop counter.
The coronary vasodilating activity of the test compound was expressed as "±" if the increase in coronary blood flow is less than 0.5 ml/minute at a dose of 100 μg/heart; "+" if the increase is not less than 0.5 ml/minute at a dose of 100 μg/heart; "++" if the increase is not less than 0.5 ml/minute at a dose of 30 μg/heart; and "+++" if the increase is not less than 0.5 ml/minute at a dose of not more than 10 μg/heart.

cerebral ischemia = experiment: Protective effect on cerebral ischemia: recovery of electrocorticogram activity after occlusion of common carotid and vertebral artery; assay type: in vivo; settings: rats, 0.1 mg/kg/minute intravenously, within one hour after reestablishment of cerebral blood flow
vertebral blood flow = experiment: Cerebral vasodilating activity: total increase in vertebral blood flow in anesthetized dogs, intravenous (Experiment 2); assay type: in vivo; settings: anesthetized male dogs, 0.2 mg/kg intravenously; increase at peak response x half duration time
Experimental: as §2
Male dogs weighing 11 to 16 kg (one group: 3 dogs) were anesthetized with sodium pentobarbital (30 mg/kg, intravenous injection). The vertebral blood flow was measured by means of an electromagnetic flowmeter under artificial respiration. A test compound dissolved in an aqueous 5% glucose solution was injected intravenously at a dose of 0.2 mg/kg. The cerebral vasodilating activity of the test compound was estimated in terms of "total increase in vertebral blood flow" which was calculated by multiplying "increase (Δml/minute) in blood flow at peak response" by "half duration time (T 1/2:minute)".

Acute toxicity, oral = settings: mouse, in vivo, mice, orally
Source text: The compound (I) is further characteristic in that said compound is low in toxicity. For example, the acute toxicity (LD50) of (+)-cis-2-(4-methoxyphenyl)-3-(2-chloro-4-nitrobenzoyloxy)-5-[2-(dimethylamino)ethyl]-2,3-dihydro-1,5-benzothiazepin-4(5H)-one fumarate, when administered to mice orally, is more than 2 g/kg.

[4] = tested on: atrioventricular conduction; experiment: Atrioventricular conduction in anesthetized guinea pigs, intravenous; assay type: in vivo; settings: 3 mg/kg intravenously
[5] = tested on: cerebral and/or coronary vasodilating activity; settings: Japanese Patent Publication Nos. 43784/1971 and 8544/1972; cited from earlier work

IC50 (calmodulin) [nM] | SMILES | Platelet aggregation-inhibiting activity (class) (platelet aggregation) | Cerebral vasodilating activity (potency ratio to papaverin, class) [1] | Coronary vasodilating activity (class) [3] | other results
 | COc1ccc([C@@H]2Sc3ccccc3N(CCN(C)C)C(=O)[C@@H]2OC(=O)c2ccccc2[N+](=O)[O-])cc1.Cl (racemic) [(±)-cis-2-(4-methoxyphenyl)-3-(2-nitrobenzoyloxy)-5-[2-(dimethylamino)ethyl]-2,3-dihydro-1,5-benzothiazepin-4(5H)-one hydrochloride] | ++ |  |  | 
2100 | CCN(C)CCN1C(=O)[C@H](OC(=O)c2ccc([N+](=O)[O-])cc2Cl)[C@H](c2ccc(OC)cc2)Sc2ccccc21 [(+)-cis-2-(4-methoxyphenyl)-3-(2-chloro-4-nitrobenzoyloxy)-5-[2-(N-methyl-N-ethylamino)ethyl]-2,3-dihydro-1,5-benzothiazepin-4(5H)-one oxalate] |  |  |  | 
2100 | CCN(CC)CCN1C(=O)[C@H](OC(=O)c2ccc([N+](=O)[O-])cc2Cl)[C@H](c2ccc(OC)cc2)Sc2ccccc21.Cl [(+)-cis-2-(4-methoxyphenyl)-3-(2-chloro-4-nitrobenzoyloxy)-5-[2-(diethylamino)ethyl]-2,3-dihydro-1,5-benzothiazepin-4(5H)-one hydrochloride] |  | +++ (the potency ratio is not less than 3) |  | 
 | COc1ccc(CCN(C)CCCC(C#N)(c2ccc(OC)c(OC)c2)C(C)C)cc1OC (stereo not shown) [verapamil, 5-[(3,4-dimethoxyphenethyl)methylamino]-2-(3,4-dimethoxyphenyl)-2-isopropylvaleronitrile] |  |  |  | effect on atrioventricular conduction (known) [2]: inhibits atrioventricular conduction to cause the prolongation of atrioventricular conduction time
 | COc1ccc([C@@H]2Sc3ccccc3N(CCN(C)C)C(=O)[C@@H]2OC(=O)c2ccc([N+](=O)[O-])cc2)cc1.O=C(O)/C=C\C(=O)O (racemic) [(±)-cis-2-(4-methoxyphenyl)-3-(4-nitrobenzoyloxy)-5-[2-(dimethylamino)ethyl]-2,3-dihydro-1,5-benzothiazepin-4(5H)-one maleate] |  |  | +++ (the increase is not less than 0.5 ml/minute at a dose of not more than 10 μg/heart) | 
1400 | COc1ccc([C@@H]2Sc3ccccc3N(CCN(C)C)C(=O)[C@@H]2OC(=O)c2ccc(Cl)c([N+](=O)[O-])c2)cc1.O=C(O)C(=O)O [(+)-cis-2-(4-methoxyphenyl)-3-(4-chloro-3-nitrobenzoyloxy)-5-[2-(dimethylamino)ethyl]-2,3-dihydro-1,5-benzothiazepin-4(5H)-one oxalate] |  | +++ (the potency ratio is not less than 3) |  | 
 | COc1ccc([C@@H]2Sc3ccccc3N(CCN(C)C)C(=O)[C@@H]2OC(=O)c2ccc(Cl)cc2[N+](=O)[O-])cc1.Cl [(+)-cis-2-(4-methoxyphenyl)-3-(4-chloro-2-nitrobenzoyloxy)-5-[2-(dimethylamino)ethyl]-2,3-dihydro-1,5-benzothiazepin-4(5H)-one hydrochloride] |  | +++ (the potency ratio is not less than 3) | +++ (the increase is not less than 0.5 ml/minute at a dose of not more than 10 μg/heart) | 
2500 | COc1ccc([C@@H]2Sc3ccccc3N(CCN(C)C)C(=O)[C@@H]2OC(=O)c2ccc([N+](=O)[O-])c(C)c2)cc1.Cl [(+)-cis-2-(4-methoxyphenyl)-3-(3-methyl-4-nitrobenzoyloxy)-5-[2-(dimethylamino)ethyl]-2,3-dihydro-1,5-benzothiazepin-4(5H)-one hydrochloride] | ++ | +++ (the potency ratio is not less than 3) | +++ (the increase is not less than 0.5 ml/minute at a dose of not more than 10 μg/heart) | 
 | COc1ccc(C2Sc3ccccc3N(CCN(C)C)C(=O)C2OC(=O)c2ccccc2)cc1 (stereo not shown) [2-(4-methoxyphenyl)-3-benzoyloxy-5-[2-(dimethylamino)ethyl]-2,3-dihydro-1,5-benzothiazepin-4(5H)-one] |  |  |  | coronary vasodilating activity (known) [5]: have a coronary vasodilating activity
2700 | COc1ccc([C@@H]2Sc3ccccc3N(CCN(C)C)C(=O)[C@@H]2OC(=O)c2ccc([N+](=O)[O-])c(OC)c2)cc1 [(+)-cis-2-(4-methoxyphenyl)-3-(3-methoxy-4-nitrobenzoyloxy)-5-[2-(dimethylamino)ethyl]-2,3-dihydro-1,5-benzothiazepin-4(5H)-one methanesulfonate] |  |  |  | 
 | COc1ccc(C2Sc3ccccc3N(CCN(C)C)C(=O)C2OCc2ccccc2)cc1 (stereo not shown) [2-(4-methoxyphenyl)-3-benzyloxy-5-[2-(dimethylamino)ethyl]-2,3-dihydro-1,5-benzothiazepin-4(5H)-one] |  |  |  | coronary vasodilating activity (known) [5]: have a coronary vasodilating activity

SMILES | IC50 (calmodulin) [nM] | Platelet aggregation-inhibiting activity (class) (platelet aggregation) | Cerebral vasodilating activity (potency ratio to papaverin, class) [1] | Coronary vasodilating activity (class) [3] | other results
COc1ccc([C@@H]2Sc3ccccc3N(CCN(C)C)C(=O)[C@@H]2OC(=O)c2ccc([N+](=O)[O-])cc2Cl)cc1.O=C(O)/C=C/C(=O)O [(+)-cis-2-(4-methoxyphenyl)-3-(2-chloro-4-nitrobenzoyloxy)-5-[2-(dimethylamino)ethyl]-2,3-dihydro-1,5-benzothiazepin-4(5H)-one fumarate] | 2500 | ++ | +++ (the potency ratio is not less than 3) | +++ (the increase is not less than 0.5 ml/minute at a dose of not more than 10 μg/heart) | cerebral vasodilating activity, times stronger than that of papaverine ([1]; vertebral artery blood flow, anesthetized dogs, intraarterial): 4.5 times; recovery of electrocorticogram (ECoG) activity (cerebral ischemia): about 50%; total increase in vertebral blood flow (vertebral blood flow): 91 mL; coronary vasodilating activity, times stronger than that of papaverine ([3]; Langendorff method, isolated hearts of guinea pigs): 10 times; LD50 (Acute toxicity, oral): > 2000 mg/kg; disturbance of atrioventricular conduction [4]: did not induce disturbance of atrioventricular conduction
COc1ccc([C@@H]2Sc3ccccc3N(CCN(C)C)C(=O)[C@@H]2OC(=O)c2ccc([N+](=O)[O-])cc2)cc1.O=C(O)/C=C/C(=O)O [(+)-cis-2-(4-methoxyphenyl)-3-(4-nitrobenzoyloxy)-5-[2-(dimethylamino)ethyl]-2,3-dihydro-1,5-benzothiazepin-4(5H)-one fumarate] | 4500 | ++ | +++ (the potency ratio is not less than 3) | +++ (the increase is not less than 0.5 ml/minute at a dose of not more than 10 μg/heart) | 
